Source: US8022055B2, “Betulinic acid derivatives” (Dabur Pharma Limited, priority 2005, dated 2011)

How the values were obtained:
[1] = test system: NIH 3T3 cells; assay: NIH3T3 cytotoxicity test (72 h MTT assay); assay type: cell-based; conditions: NIH3T3, 72 hours
Protocol: The cytotoxic effect of chemicals upon NIH 3T3 cells in culture is measured by cell metabolism determination using the previously described MIT assay. Healthy NIH 3T3 cells (an established cell-line), when maintained in culture continuously divide and multiply over time. The basis of this test is that a cytotoxic chemical (regardless of site or mechanism of action) will interfere with this process and, thus, result in a reduction of the growth rate as reflected by cell number. The degree of inhibition of growth, related to the concentration of the test compound, provides an indication of toxicity.
The NIH 3T3 cells are maintained in culture and exposed to test compounds over a range of concentrations and the number of viable cells determined after 72 hours exposure by MIT assay. The number of cells in the presence of test chemicals are compared to that observed in control cultures and the percent inhibition of growth calculated. The IC50 concentration (i.e. the concentration producing 50% inhibition of growth) is determined and expressed as μg/ml. A ratio of IC50 of NIH 3T3 cells to tumor cells is an indicator of predicted toxicity of the molecule and is represented as “Safety Index”. The higher the value, the better is the predicted safety of the molecule.

[2] = test system: PA1; assay: three day MTT cytotoxicity assay, PA1; assay type: cell-based, human; conditions: PA1, 72 hours
Protocol: Briefly, a three day MTT cytotoxicity assay was performed, which is based on the principle of uptake of MTT (3-(4,5-dimethylthiazol-2-yl)-2,5-diphenyl tetrazolium bromide), a tetrazolium salt, by the metabolically active cells where it is metabolized by active mitochondria into a blue colored formazan product that is read spectrophotometrically. MIT was dissolved in phosphate buffered saline with a pH of 7.4 to obtain an MIT concentration of 5 mg/ml; the resulting mixture was filtered through a 0.22-micron filter to sterilize and remove a small amount of insoluble residue. For each type of tumor cell, 10,000 to 15,000 cells were seeded in a 96-well culture plate and incubated with the individual betulinic acid derivatives in a CO2 incubator for a total of 72 hours. Control cells not treated with the betulinic acid derivatives were similarly incubated. The assay was terminated by adding 100 μg (20 μl) of MIT to each well then incubating for additional one hour, and finally adding 50 μl of 10% SDS-0.01N HCl to each well to lyse the cells and dissolve formazan. After incubating for one hour, the plate was read spectrophotometrically at 540 nm and the percentage of cytotoxicity calculated using the following formula: Cytotoxicity percentage=100×[1−(X/R1)], where X=(absorbance of treated sample at 540 nm)−(absorbance of blank at 540 nm) R1=absorbance of control sample at 540 nm. The IC50 Values of the cytotoxicity defined as the concentration at which 50% of the cells are killed in vitro was calculated for each cell line treated with each of the betulinic acid derivatives.

[3] = test system: DU145; assay: three day MTT cytotoxicity assay, DU145; assay type: cell-based, human; conditions: DU145, 72 hours
Protocol: (§1) A number of compounds listed in Table-3 were tested for cytotoxicity against prostate, lung, laryngeal, pancreas, breast, colon and ovarian cancer, leukemia and lymphoma, human tumor cell lines. Briefly, a three day MTT cytotoxicity assay was performed, which is based on the principle of uptake of MTT (3-(4,5-dimethylthiazol-2-yl)-2,5-diphenyl tetrazolium bromide), a tetrazolium salt, by the metabolically active cells where it is metabolized by active mitochondria into a blue colored formazan product that is read spectrophotometrically. MIT was dissolved in phosphate buffered saline with a pH of 7.4 to obtain an MIT concentration of 5 mg/ml; the resulting mixture was filtered through a 0.22-micron filter to sterilize and remove a small amount of insoluble residue. For each type of tumor cell, 10,000 to 15,000 cells were seeded in a 96-well culture plate and incubated with the individual betulinic acid derivatives in a CO2 incubator for a total of 72 hours. Control cells not treated with the betulinic acid derivatives were similarly incubated. The assay was terminated by adding 100 μg (20 μl) of MIT to each well then incubating for additional one hour, and finally adding 50 μl of 10% SDS-0.01N HCl to each well to lyse the cells and dissolve formazan. After incubating for one hour, the plate was read spectrophotometrically at 540 nm and the percentage of cytotoxicity calculated using the following formula: Cytotoxicity percentage=100×[1−(X/R1)], where X=(absorbance of treated sample at 540 nm)−(absorbance of blank at 540 nm) R1=absorbance of control sample at 540 nm. The IC50 Values of the cytotoxicity defined as the concentration at which 50% of the cells are killed in vitro was calculated for each cell line treated with each of the betulinic acid derivatives.

[4] = test system: SW620; assay: three day MTT cytotoxicity assay, SW620; assay type: cell-based, human; conditions: SW620, 72 hours
[5] = test system: HBL100; assay: three day MTT cytotoxicity assay, HBL100; assay type: cell-based, human; conditions: for IC50 for cell lines HBL100: HBL100, 72 hours, MTT; for Specific Index (SI) for cell lines HBL100: ratio of IC50 of NIH 3T3 cells to HBL100
Protocol: as §1

[6] = test system: Miapaca; assay: three day MTT cytotoxicity assay, Miapaca; assay type: cell-based, human; conditions: for IC50 for cell lines Miapaca: 72 hours, MTT; for Specific Index (SI) for cell lines Miapaca: ratio of IC50 of NIH 3T3 cells to Miapaca
Protocol: as §1

[7] = test system: A549; assay: three day MTT cytotoxicity assay, A549; assay type: cell-based, human; conditions: for IC50 for cell lines A549: A549, 72 hours, MTT; for Specific Index (SI) for cell lines A549: ratio of IC50 of NIH 3T3 cells to A549
[8] = test system: K562; assay: three day MTT cytotoxicity assay, K562; assay type: cell-based, human; conditions: for IC50 for cell lines K562: K562, 72 hours, MTT; for Specific Index (SI) for cell lines K562: ratio of IC50 of NIH 3T3 cells to K562
Protocol: as §1

SMILES	IC50 for cell lines NIH3T3 [1] [µg/mL]	IC50 for cell lines PA1 [2] [µg/mL]	IC50 for cell lines DU145 [3] [µg/mL]	IC50 for cell lines SW620 [4] [µg/mL]	IC50 for cell lines HBL100 [5] [µg/mL]	Specific Index (SI) for cell lines HBL100 [5]	IC50 for cell lines Miapaca [6] [µg/mL]	Specific Index (SI) for cell lines Miapaca [6]	IC50 for cell lines A549 [7] [µg/mL]	Specific Index (SI) for cell lines A549 [7]	IC50 for cell lines K562 [8] [µg/mL]	Specific Index (SI) for cell lines K562 [8]
C=C(C)[C@@H]1CC[C@]2(C(=O)O)CC[C@]3(C)[C@H](CC[C@@H]4[C@@]5(C)Cc6c([nH]c7c(Cl)cccc67)C(C)(C)[C@@H]5CC[C@]43C)[C@@H]12 [Compound 9, 7′-Chloro-2,3-didehydroindolo[2′,′:2,3]betulinic acid]	11.8 ± 0.19	6.39	11.66	2.008	11.8 ± 0.35	1	11.6 ± 0.49	1.017	8.7 ± 0.19	1.356	9.26 ± 1.6	1.274
C=C(C)[C@@H]1CC[C@]2(C(=O)O)CC[C@]3(C)[C@H](CC[C@@H]4[C@@]5(C)Cc6c([nH]c7ccc(OC)cc67)C(C)(C)[C@@H]5CC[C@]43C)[C@@H]12 [Compound 10, 2,3-Didehydro-5′-methoxyindolo[2′,′:2,3]betulinic acid]	7.5 ± 0.48	5.8	5.75	8.4	12.8 ± 0.39	0.586	6.4 ± 0.44	1.172	8.2 ± 0.14	0.915	>20	<0.38
C=C(C)[C@@H]1CC[C@]2(C(=O)O)CC[C@]3(C)C(CCC4[C@@]5(C)Cc6c(oc7ccccc67)C(C)(C)C5CC[C@]43C)C12 (stereo partly shown) [Compound 11, 2,3-Didehydrobenzfurano[2′,3′:2,3]betulinic acid]	19.03 ± 0.79	>20	>20	>20	>20	<0.952	>20	<0.952	>20	<0.952	>20	<0.952
C=C(C)[C@@H]1CC[C@]2(C(=O)OCc3ccccc3)CC[C@]3(C)C(CCC4[C@@]5(C)Cc6c([nH]c7ccccc67)C(C)(C)C5CC[C@]43C)C12 (stereo partly shown) [Compound 15, 28-O-Benzyl-2,3-didehydro[2′,3′:2,3]indolobetulinate]	>20	>20	>20	>20	>20	–	>20	–	>20	–	>20	–
CC(C)[C@@H]1CC[C@]2(C(=O)OCc3ccccc3)CC[C@]3(C)C(CCC4[C@@]5(C)Cc6c([nH]c7ccccc67)C(C)(C)C5CC[C@]43C)C12 (stereo partly shown) [Compound 16, 28-O-Benzyl-2,3-didehydro-20,29-dihydro[2′,3′:2,3]indolobetulinate]	>20	>20	>20	>20	>20	–	>20	–	>20	–	>20	–
